System: Delayed type hypersensitivity (DTH) skin reaction
Assay: Inhibition of DTH skin reactions (oxazolone-induced mouse ear swelling test)
Format: in vivo, female Balb/c mice
Conditions: for % Inf ((diff/baseline measurement)×100) / % Inhibit ([1−(diff/diff of PBS)]×100) / Diff. (average difference between baseline and post treatment ear measurements): 24 hours after challenge; for effectiveness in the DTH skin reaction model: 5-100 mg/ml
Experimental: Delayed type hypersensitivity (DTH), a localized inflammatory reaction induced by cytokines secreted by TH cells when they encounter certain types of antigens, is an established experimental model for skin inflammation.
DTH reactions were induced in the abdomen skin of 8 week old female Balb/c mice. The mice were sensitized first by topical application of 100 μl of a 5% Oxazolone (4-Ethoxymethylene-2-phenyl-2-oxazolin-5-one; Sigma) solution in ethanol/acetone (3:1, vol/vol) to a shaved abdomen. The mice were anesthetized with ip injection of Ketamine (1 ml)+Xylazine (1 ml)+Saline (8 ml), (0.2 ml per 20 g mouse). Anesthetization was performed before the shaving of the abdomen and the first sensitization.
After 4 days the mice were challenged for the second time using 1% Oxazolone (4-Ethoxymethylene-2-phenyl-2-oxazolin-5-one; Sigma) solution in ethanol/acetone (3:1, vol/vol). The solution was pipetted to the shaved abdomen of the mice.
Six days after the first sensitization, the right ear of each mouse was challenged with a topical application of 20 μl (10 μl on each surface of the ear) of a 1% Oxazolone solution in olive oil/acetone (3:1, vol/vol).
Treatment was given 30 min after challenging by applying 40 μl (20 μl on each surface of the ear) of treatment compounds on the challenged ear of each mouse.
After 24 hours, the extent of inflammation was measured using the mouse ear swelling test (caliper) and the percent inhibition induced by the treatment was quantified.
The experiment includes groups treated with 5, 15, 40, and 100 mg/ml of octadec-(Z)-9-enoic acid 4-dimethylaminomethyl-benzyl ester HCl (1c) and groups treated with 5, 15, 40, and 100 mg/ml of octadec-(Z)-9-enoic acid 4-dimethylaminomethyl-phenyl ester HCl (2d). The experiment also includes dexamethasone (2 mg/mouse) as a positive control, one negative control group (PBS, phosphate buffered saline), and one naïve group. There were 6 mice per group. The researchers who performed the measurements were blinded as to the grouping of each mouse.
In Table 1, “diff” refers to average difference between baseline and post treatment measurements in mm; “% Inf” refers to the (diff/baseline measurement)×100; and, “% Inhibit” refers to [1−(diff/diff of PBS)]×100. Baseline measurements of the ear were conducted before the first sensitization.

[1] = positive control, dose 2 mg/mouse
[2] = topical on challenged ear, treatment 5 mg/ml (0.2 mg/mouse)
[3] = topical on challenged ear, treatment 15 mg/ml (0.6 mg/mouse)
[4] = topical on challenged ear, treatment 40 mg/ml (1.6 mg/mouse)
[5] = topical on challenged ear, treatment 100 mg/ml (4 mg/mouse)

Row | SMILES | % Inf ((diff/baseline measurement)×100) [1] [%] | % Inhibit ([1−(diff/diff of PBS)]×100) [1] [%] | Diff. (average difference between baseline and post treatment ear measurements) [1] [mm] | % Inf ((diff/baseline measurement)×100) [2] [%] | % Inhibit ([1−(diff/diff of PBS)]×100) [2] [%] | Diff. (average difference between baseline and post treatment ear measurements) [2] [mm] | % Inf ((diff/baseline measurement)×100) [3] [%] | % Inhibit ([1−(diff/diff of PBS)]×100) [3] [%] | Diff. (average difference between baseline and post treatment ear measurements) [3] [mm] | % Inf ((diff/baseline measurement)×100) [4] [%] | % Inhibit ([1−(diff/diff of PBS)]×100) [4] [%] | Diff. (average difference between baseline and post treatment ear measurements) [4] [mm] | % Inf ((diff/baseline measurement)×100) [5] [%] | % Inhibit ([1−(diff/diff of PBS)]×100) [5] [%] | Diff. (average difference between baseline and post treatment ear measurements) [5] [mm] | effectiveness in the DTH skin reaction model (topical) | most effective doses (DTH skin reaction model, topical) [mg/mL]
1 | C[C@@H]1C[C@H]2[C@@H]3CCC4=CC(=O)C=C[C@]4(C)[C@@]3(F)[C@@H](O)C[C@]2(C)[C@@]1(O)C(=O)CO [Positive control, dexamethasone, reference compound] | 20.55 | 84.74 | 0.04 |  |  |  |  |  |  |  |  |  |  |  |  |  | 
2 | CCCCCCCC/C=C\CCCCCCCC(=O)OCc1ccc(CN(C)C)cc1.Cl [Compound 1c, Octadec-(Z)-9-enoic acid 4-dimethylaminomethyl-benzyl ester HCl] |  |  |  | 92.65 | 26.74 | 0.20 | 103.21 | 26.01 | 0.20 | 58.56 | 54.82 | 0.12 | 48.19 | 63.37 | 0.10 | effective | 
3 | CCCCCCCC/C=C\CCCCCCCC(=O)Oc1ccc(CN(C)C)cc1.Cl [Compound 2d, Octadec-(Z)-9-enoic acid 4-dimethylaminomethyl-phenyl ester HCl] |  |  |  | 113.46 | 13.31 | 0.24 | 107.18 | 21.25 | 0.22 | 114.66 | 13.31 | 0.24 | 55.96 | 59.10 | 0.11 | effective | 100
